Experimental data reported in patent publication US12655173B2, “Hybrid amide derivatives of amphotericin B” (priority 2020, dated 2026).
Values after ≈ are worked out from the molar mass of the structure shown.

Columns and labels:
Trichophyton rubrum = experiment: MIC against yeasts (Table 3A); assay type: cell-based; details: 3 isolates
[1] = tested on: Trichophyton mentagropytes; experiment: MIC against yeasts (Table 3A); assay type: cell-based; details: 3 isolates
[2] = In vivo mouse pharmacokinetics (IV, CD-1 mice)
Method: Mouse PK (FIG. 2): The experiment was performed using the compounds synthesized in lab and purified by preparative HPLC (>91%). All the compounds were dissolved in D5W (5% dextrose in water) at for IV injection. Female CD-1 mice were (3 per group; body weight approx. 30 g each) injected with the compounds (as per planned dosage) and the blood samples were collected at different time points and the compound content was analysed using the following procedure. • Instrument: Triple Quad 6500+ • Matrix […] CD-1 mouse plasma (EDTA-K2) • Analyte(s): Compound 1 • Internal standard(s): 100 ng/mL Labetalol & 100 ng/mL Tolbutamide in ACN • MS conditions ESI: positive • SRM detection • Compound 1: [M+H]+m/z 979.8>798.4 • Labelatol (IS): [M+H]+m/z 329.2>162.1 • UPLC conditions • Mobile Phase A: 0.1% FA in Water • Mobile Phase B: 0.1% FA in ACN
An aliquot of 90 μL supernatant was transferred to sample plate and mixed with 60 μL water, then the plate was shaken at 800 rpm for 10 min, 15.0 μL supernatant was injected for LC-MS/MS analysis. • Calibration curve: • 1.00-3000 ng/ml, for Compound 1 in female CD-1 mouse plasma (EDTA-K2)

Structure (SMILES)	MIC (Trichophyton rubrum) [µM]	MIC [1] [µM]	In vivo PK AUC0-inf (ng*hr/mL) ([2]; 1 mg/kg)	In vivo PK Cl ([2]; 1 mg/kg) [mL/min/kg]	In vivo PK T1/2, ([2]; 1 mg/kg) [h]	In vivo PK AUC0-inf ([2]; 5 mg/kg) [ng·h/mL]	In vivo PK Cl ([2]; 5 mg/kg) [mL/min/kg]	In vivo PK T1/2, ([2]; 5 mg/kg) [h]
C[C@@H]1[C@H](O)[C@@H](C)/C=C/C=C/C=C/C=C/C=C/C=C/C=C/[C@H](OC2O[C@H](C)[C@@H](O)[C@H](N)[C@@H]2O)C[C@@H]2O[C@](O)(C[C@@H](O)C[C@@H](O)[C@H](O)CC[C@@H](O)C[C@@H](O)CC(=O)O[C@H]1C)C[C@H](O)[C@H]2C(=O)O (some centres unmarked) [AmB, Amphotericin B]	1.1 (≈ 1.02 µg/mL)	4 (≈ 3.7 µg/mL)						
CC1C=CC=CC=CC=CC=CC=CC=CC(OC2OC(C)C(O)C(N)C2O)CC2OC(O)(CC(O)CC(O)C(O)CCC(O)CC(O)CC(=O)OC(C)C(C)C1O)CC(O)C2C(=O)NC(CO)CO (centres unmarked) [Compound 1]			18785] ng*hr/mL	0.891	8.37	79575	1.05	9.6
